Experimental data reported in US9822147B2, “Methods of treating ophthalmic diseases using NPR-B agonists” (priority 2009, dated 2017).
Numbered stars: 1 amine (or outer) side, 2 acyl side, 3 side chain; on linkers, the order of the positions; unused ones are H or OH. Square brackets hold non-standard residues; d marks the D form. Peptide text beside a SMILES is read from it. * marks the point of attachment. Phe(3-CF3) = N[C@@H](Cc1cccc(C(F)(F)F)c1)C(=O)O; Pro(4R-NH2) = N[C@H]1CN[C@H](C(=O)O)C1; X11 = O=C(C(CCN1CCCC1)N[*:1])[*:2]; X2 = O=C([C@H]1CCCN([*:1])C1)[*:2]; Hyp = O=C(O)[C@@H]1C[C@@H](O)CN1; tBuAla = CC(C)(C)C[C@H](N)C(=O)O; Aoc(2) = CCCCCC[C@H](N)C(=O)O; NHcycloheptyl = C1CCCC(N*)CC1; NMeL = CN[C@@H](CC(C)C)C(=O)O; X6 = C[C@@H]1CCCC[C@H]1N*; Ac6c = NC1(C(=O)O)CCCCC1; Octanoyl = CCCCCCCC(=O)*; AEEA = NCCOCCOCC(=O)O

Molecular target: T1, NPR-B (Homo sapiens, UniProt P20594)
T1 construct: a functional assay using endogenously NPR-B expressing GTM-3 cells; endogenous in cells; host or cells: GTM-3 (human glaucoma trabecular meshwork cells)
T1 sequence (P20594 23-1047): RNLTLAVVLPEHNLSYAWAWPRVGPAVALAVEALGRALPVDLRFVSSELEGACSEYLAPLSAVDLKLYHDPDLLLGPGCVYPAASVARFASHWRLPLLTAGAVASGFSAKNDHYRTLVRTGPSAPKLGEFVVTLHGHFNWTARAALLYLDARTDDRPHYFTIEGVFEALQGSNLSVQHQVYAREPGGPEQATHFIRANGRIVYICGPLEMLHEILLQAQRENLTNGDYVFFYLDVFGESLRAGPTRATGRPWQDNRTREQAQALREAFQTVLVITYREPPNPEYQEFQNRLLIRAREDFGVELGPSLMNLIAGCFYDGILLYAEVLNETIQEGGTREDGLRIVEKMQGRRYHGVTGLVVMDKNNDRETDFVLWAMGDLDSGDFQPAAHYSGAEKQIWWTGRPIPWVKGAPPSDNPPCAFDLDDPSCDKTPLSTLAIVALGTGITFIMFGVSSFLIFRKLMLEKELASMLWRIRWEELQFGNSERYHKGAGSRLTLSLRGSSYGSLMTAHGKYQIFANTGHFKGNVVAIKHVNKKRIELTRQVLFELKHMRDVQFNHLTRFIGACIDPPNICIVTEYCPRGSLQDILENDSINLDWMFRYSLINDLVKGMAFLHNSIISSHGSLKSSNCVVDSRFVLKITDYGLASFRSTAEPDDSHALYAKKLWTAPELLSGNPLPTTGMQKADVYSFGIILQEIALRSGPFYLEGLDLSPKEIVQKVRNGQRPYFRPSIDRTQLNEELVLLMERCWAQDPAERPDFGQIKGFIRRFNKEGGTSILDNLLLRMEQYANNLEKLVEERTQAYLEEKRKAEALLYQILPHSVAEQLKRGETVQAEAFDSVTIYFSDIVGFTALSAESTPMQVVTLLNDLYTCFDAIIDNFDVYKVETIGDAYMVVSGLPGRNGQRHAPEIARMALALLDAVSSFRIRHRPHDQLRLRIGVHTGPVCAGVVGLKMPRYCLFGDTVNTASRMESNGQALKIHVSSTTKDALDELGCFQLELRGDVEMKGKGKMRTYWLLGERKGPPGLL
Experiment: NPR-B induced production of cyclic GMP in human glaucoma trabecular meshwork cells (GTM-3)
Assay type: cell-based
Conditions: group by EC50 and Emax (CNP = 100%); Table 4; read-out: Activity (group), NPR-B activation assayed with GTM-3 cells

Compound	EC50
CCCCCCCC(=O)N1CCC[C@H](C(=O)N[C@@H](Cc2cccc(C(F)(F)F)c2)C(=O)N[C@H](CC(C)C)C(=O)N[C@@H](CC(C)C)C(=O)N2C[C@H](O)C[C@H]2C(=O)N(C)[C@@H](CC(C)C)C(=O)N[C@@H](CC(=O)O)C(=O)N[C@@H](CCCNC(=N)N)C(=O)N[C@H](C(N)=O)[C@@H](C)CC)C1 [JAL-1621, Occ-Sni-Mtf-leu-Leu-Hyp-Nml-Asp-Arg-Ile-NH2] (Octanoyl-[X2][Phe(3-CF3)][dL]L[Hyp][NMeL]DRI-NH2)	< 1000 nM
CCCCCCCC(=O)N[C@H](C)C(=O)N[C@@H](Cc1ccccc1)C(=O)NC1(C(=O)N[C@@H](CC(C)C)C(=O)N2C[C@H](N)C[C@H]2C(=O)N(C)[C@@H](CC(C)C)C(=O)N[C@@H](CC(=O)O)C(=O)N[C@@H](CCCNC(=N)N)C(=O)N[C@H](C(N)=O)[C@@H](C)CC)CCCCC1 [JAL-1454, Occ-ala-Phe-Egz-Leu-Tap-Nml-Asp-Arg-Ile-NH2] (Octanoyl-[dA]F[Ac6c]L[Pro(4R-NH2)][NMeL]DRI-NH2)	< 1000 nM
CCCCCCCC(=O)N[C@H](C)C(=O)N[C@@H](Cc1ccccc1)C(=O)N[C@H](CCCC)C(=O)N[C@@H](CC(C)C)C(=O)N1C[C@H](O)C[C@H]1C(=O)N(C)[C@@H](CC(C)C)C(=O)N[C@@H](CC(=O)O)C(=O)N[C@@H](CCCNC(=N)N)C(=O)N[C@H](C(N)=O)[C@@H](C)CC [JAL-1044, Occ-ala-Phe-nle-Leu-Hyp-Nml-Asp-Arg-Ile-NH2] (HELM PEPTIDE1{[CCCCCCCC(=O)[*:2]].[dA].F.[CCCC[C@@H](N[*:1])C(=O)[*:2]].L.[Hyp].[meL].D.R.I.[am]}$$$$V2.0)	< 1000 nM
CCCCCCCC(=O)N[C@H](C)C(=O)N[C@@H](Cc1ccc(Cl)cc1)C(=O)N[C@H](CC(C)C)C(=O)N[C@@H](CC(C)C)C(=O)N1C[C@H](O)C[C@H]1C(=O)N[C@@H](CC(C)C)C(=O)N[C@@H](CC(=O)O)C(=O)N[C@@H](CCCNC(=N)N)C(=O)N[C@H](C(N)=O)[C@@H](C)CC [JAL-1050, Occ-ala-Pcf-leu-Leu-Hyp-Leu-Asp-Arg-Ile-NH2] (HELM PEPTIDE1{[CCCCCCCC(=O)[*:2]].[dA].[O=C([C@H](Cc1ccc(Cl)cc1)N[*:1])[*:2]].[dL].L.[Hyp].L.D.R.I.[am]}$$$$V2.0)	< 1000 nM
CCCCCCCC(=O)N1CCC[C@H](C(=O)N[C@@H](Cc2ccccc2)C(=O)N[C@H](CC(C)C)C(=O)N[C@@H](CC(C)C)C(=O)N2C[C@H](O)C[C@H]2C(=O)N(C)[C@@H](CC(C)C)C(=O)N[C@H](C(=O)N[C@@H](CCCNC(=N)N)C(=O)N[C@H](C(N)=O)[C@@H](C)CC)C(C)C)C1 [JAL-1398, Occ-Sni-Phe-leu-Leu-Hyp-Nml-Val-Arg-Ile-NH2] (HELM PEPTIDE1{[CCCCCCCC(=O)[*:2]].[O=C([C@H]1CCCN([*:1])C1)[*:2]].F.[dL].L.[Hyp].[meL].V.R.I.[am]}$$$$V2.0)	< 1000 nM
CCCCCCCC(=O)N1CCC[C@H](C(=O)N[C@@H](Cc2ccccc2)C(=O)N[C@H](CCCNC(=N)N)C(=O)N[C@@H](CC(C)C)C(=O)N2C[C@H](O)C[C@H]2C(=O)N(C)[C@@H](CC(C)C)C(=O)N[C@@H](CC(=O)O)C(=O)N[C@@H](CCCNC(=N)N)C(=O)N[C@H](C(N)=O)[C@@H](C)CC)C1 [JAL-1255, Occ-Sni-Phe-arg-Leu-Hyp-Nml-Asp-Arg-Ile-NH2] (HELM PEPTIDE1{[CCCCCCCC(=O)[*:2]].[O=C([C@H]1CCCN([*:1])C1)[*:2]].F.[dR].L.[Hyp].[meL].D.R.I.[am]}$$$$V2.0)	< 1000 nM
CCCCCCCC(=O)N1CCC[C@@H]1C(=O)N[C@@H](Cc1ccccc1)C(=O)N[C@H](CC(C)C)C(=O)N[C@@H](CC(C)C)C(=O)N1C[C@H](O)C[C@H]1C(=O)N[C@@H](CC(C)C)C(=O)N[C@@H](CC(=O)O)C(=O)N[C@@H](CCCNC(=N)N)C(=O)N[C@H](C(N)=O)[C@@H](C)CC [JAL-1053, Occ-pro-Phe-leu-Leu-Hyp-Leu-Asp-Arg-Ile-NH2] (HELM PEPTIDE1{[CCCCCCCC(=O)[*:2]].[dP].F.[dL].L.[Hyp].L.D.R.I.[am]}$$$$V2.0)	< 1000 nM
CCCCCCCC(=O)N[C@H](C)C(=O)N[C@@H](Cc1ccc(Br)cc1)C(=O)N[C@H](CCCNC(=N)N)C(=O)N[C@@H](CC(C)C)C(=O)N1C[C@H](O)C[C@H]1C(=O)N[C@@H](CC(C)C)C(=O)N[C@@H](CC(=O)O)C(=O)N[C@@H](CCCNC(=N)N)C(=O)N[C@H](C(N)=O)[C@@H](C)CC [JAL-1116, Occ-ala-Pbf-arg-Leu-Hyp-Leu-Asp-Arg-Ile-NH2] (HELM PEPTIDE1{[CCCCCCCC(=O)[*:2]].[dA].[O=C([C@H](Cc1ccc(Br)cc1)N[*:1])[*:2]].[dR].L.[Hyp].L.D.R.I.[am]}$$$$V2.0)	< 1000 nM

Other lines, results leading:

EC50	Compound
< 1000 nM	CCCCCCCC(=O)N1CCC[C@H](C(=O)N[C@@H](Cc2ccccc2)C(=O)NC(CCN2CCCC2)C(=O)N[C@@H](CC(C)C)C(=O)N2C[C@H](O)C[C@H]2C(=O)N(C)[C@@H](CC(C)C)C(=O)N[C@@H](CC(=O)O)C(=O)N[C@@H](CCCNC(=N)N)C(=O)N[C@H](C(N)=O)[C@@H](C)CC)C1 (stereo partly drawn) [JAL-1877, Occ-Sni-Phe-(AR-385-12)-Leu-Hyp-Nml-Asp-Arg-Ile-NH2] (Octanoyl-[X2]F[X11]L[Hyp][NMeL]DRI-NH2)
< 1000 nM	CCCCCCCC(=O)N1CCC[C@H](C(=O)N[C@@H](Cc2ccccc2)C(=O)N[C@H](CC(C)C)C(=O)N[C@@H](CC(C)C)C(=O)N2C[C@H](O)C[C@H]2C(=O)N(C)[C@@H](CC(C)C)C(=O)N[C@H](C(=O)N[C@@H](CCCNC(=N)N)C(=O)NC2CCCCCC2)[C@@H](C)O)C1 [JAL-1753, Occ-Sni-Phe-leu-Leu-Hyp-Nml-Thr-Arg-Che] (Octanoyl-[X2]F[dL]L[Hyp][NMeL]TR-NHcycloheptyl)
< 1000 nM	CCCCCC[C@H](NC(=O)COCCOCCN)C(=O)N1CCC[C@H](C(=O)N[C@@H](Cc2ccccc2)C(=O)N[C@H](CC(C)C)C(=O)N[C@@H](CC(C)C)C(=O)N2C[C@H](O)C[C@H]2C(=O)N(C)[C@@H](CC(C)C)C(=O)N[C@@H](CC(=O)O)C(=O)N[C@@H](CCCNC(=N)N)C(=O)N[C@H](C(N)=O)[C@@H](C)CC)C1 [JAL-1808, H-Adx-Hgl-Sni-Phe-leu-Leu-Hyp-Nml-Asp-Arg-Ile-NH2] (H-[AEEA][Aoc(2)][X2]F[dL]L[Hyp][NMeL]DRI-NH2)
< 1000 nM	CCCCCCCC(=O)N[C@H](C)C(=O)N[C@@H](Cc1ccccc1)C(=O)N[C@H](CC(C)C)C(=O)N[C@@H](CC(C)C)C(=O)N1C[C@H](O)C[C@H]1C(=O)N(C)[C@@H](CC(C)C)C(=O)N[C@@H](CC(=O)O)C(=O)N[C@@H](CCCNC(=N)N)C(=O)NC(CC)(CC)C(N)=O [JAL-1416, Occ-ala-Phe-leu-Leu-Hyp-Nml-Asp-Arg-Deg-NH2] (HELM PEPTIDE1{[CCCCCCCC(=O)[*:2]].[dA].F.[dL].L.[Hyp].[meL].D.R.[CCC(CC)(N[*:1])C(=O)[*:2]].[am]}$$$$V2.0)
< 1000 nM	CCCCCCCC(=O)N1CCC[C@H](C(=O)N[C@@H](Cc2ccccc2)C(=O)N[C@H](CC(C)C)C(=O)N[C@@H](CC(C)C)C(=O)N2C[C@H](O)C[C@H]2C(=O)N[C@@H](CC(C)(C)C)C(=O)N[C@@H](CC(=O)O)C(=O)N2CCC[C@H]2C(=O)NC2CCCCCC2)C1 [JAL-1595, Occ-Sni-Phe-leu-Leu-Hyp-Npg-Asp-Pro-Che] (Octanoyl-[X2]F[dL]L[Hyp][tBuAla]DP-NHcycloheptyl)
< 1000 nM	CCCCCCCC(=O)N1CCC[C@H](C(=O)N[C@@H](Cc2ccccc2)C(=O)N[C@H](CC(C)C)C(=O)N[C@@H](CC(C)C)C(=O)N2C[C@H](O)C[C@H]2C(=O)N(C)[C@@H](CC(C)C)C(=O)N[C@@H](CC(=O)O)C(=O)N2CCC[C@H]2C(=O)N[C@@H]2CCCC[C@H]2C)C1 [JAL-1510, Occ-Sni-Phe-leu-Leu-Hyp-Nml-Asp-Pro-1860] (Octanoyl-[X2]F[dL]L[Hyp][NMeL]DP-X6)
< 1000 nM	CCCCCCCC(=O)N1CCC[C@H](C(=O)N[C@@H](Cc2ccccc2)C(=O)N[C@H](CCCNC(=N)N)C(=O)N[C@@H](CC(C)C)C(=O)N2C[C@H](N)C[C@H]2C(=O)N(C)[C@@H](CC(C)C)C(=O)N[C@@H](CC(=O)O)C(=O)N[C@@H](CCCNC(=N)N)C(=O)N[C@H](C(N)=O)[C@@H](C)CC)C1 [JAL-1317, Occ-Sni-Phe-arg-Leu-Tap-Nml-Asp-Arg-Ile-NH2] (Octanoyl-[X2]F[dR]L[Pro(4R-NH2)][NMeL]DRI-NH2)
< 1000 nM	CCCCCCCC(=O)N1CCC[C@H](C(=O)N[C@@H](Cc2ccccc2)C(=O)N[C@H](CC(C)C)C(=O)N[C@@H](CCCC)C(=O)N2C[C@H](O)C[C@H]2C(=O)N(C)[C@@H](CC(C)C)C(=O)N[C@@H](CC(=O)O)C(=O)N[C@@H](CCCNC(=N)N)C(=O)N[C@H](C(N)=O)[C@@H](C)CC)C1 [JAL-1624, Occ-Sni-Phe-leu-Nle-Hyp-Nml-Asp-Arg-Ile-NH2] (HELM PEPTIDE1{[CCCCCCCC(=O)[*:2]].[O=C([C@H]1CCCN([*:1])C1)[*:2]].F.[dL].[Nle].[Hyp].[meL].D.R.I.[am]}$$$$V2.0)
